Results taken from paper PMC11213733, “Computational approaches identify a transcriptomic fingerprint of drug-induced structural cardiotoxicity” (Cell Biology and Toxicology, 2024).
Counter-ions that a name gives are not always drawn. Like-named read-outs stand apart in the source and are kept apart here.

Columns and labels:
cardiac microtissues [1] = assay: Targeted qRT-PCR of ATAD3C, CDH13, IL6, PTX3, SLC7A5, UCHL1 in cardiac microtissues; assay type: cell-based, human; details: Sorafenib 3.74 µM, Sunitinib 3.53 µM, Dasatinib 10.8 µM; for activity at 10.8 µM: Homo sapiens, read-out: % of control
Protocol: The experiment was performed with three technical replicates across 1-2 independent replicates.

cardiac microtissues [2] = assay: Ingenuity Pathway Analysis over-representation of differentially expressed genes (activation Z-score); assay type: cell-based, human; details: 48hr high; Group 2
cardiac microtissues [3] = assay: Transcriptomic profiling (mRNA-seq) and DESeq2 differential gene expression analysis in cardiac microtissues; details: for number of significant differentially expressed genes, 6hr high / number of significant differentially expressed genes, 6hr low / number of significant differentially expressed genes, 48hr high / number of significant differentially expressed genes, 48hr low / number of significant differentially expressed genes, 72hr high / number of significant differentially expressed genes, 72hr low: absolute log2(Fold-Change) > 1, FDR p ≤ 0.05; for number of significant differentially expressed genes, 6hr high / number of significant differentially expressed genes, 48hr high / number of significant differentially expressed genes, 72hr high: high concentration; for number of significant differentially expressed genes, 6hr low / number of significant differentially expressed genes, 48hr low / number of significant differentially expressed genes, 72hr low: low concentration
[4] = ref FDA label, cited from earlier work; for Structural cardiotoxin?: FDA label references heart failure or a decrease in left ventricular ejection fraction; for Functional cardiotoxin?: compound annotation
cardiac microtissues [5] = assay: ATP depletion (CellTiter Glo Luminescent Cell Viability Assay) in cardiac microtissues; assay type: cell-based, human; details: the concentration is the IC30 of ATP depletion, or cell death caused
Protocol: Cellular ATP concentrations were also assessed using the CellTiter Glo® Luminescent Cell Viability Assay as per the manufacturer’s instructions (Promega).

Cc1nc(Nc2ncc(C(=O)Nc3c(C)cccc3Cl)s2)cc(N2CCN(CCO)CC2)n1 [Dasatinib]
activity at 10.8 µM (cardiac microtissues [1]; gene ATAD3C, Run 1): 75.7%
activity at 10.8 µM (cardiac microtissues [1]; gene CDH13, Run 1): 46.8%
activity at 10.8 µM (cardiac microtissues [1]; gene CDH13, Run 2): 19.7%
activity at 10.8 µM (cardiac microtissues [1]; gene IL6, Run 1): 10.1%
activity at 10.8 µM (cardiac microtissues [1]; gene PTX3, Run 1): 18.7%
activity at 10.8 µM (cardiac microtissues [1]; gene PTX3, Run 2): 4.94%
activity at 10.8 µM (cardiac microtissues [1]; gene SLC7A5, Run 1): 52.1%
activity at 10.8 µM (cardiac microtissues [1]; gene SLC7A5, Run 2): 26%
activity at 10.8 µM (cardiac microtissues [1]; gene UCHL1, Run 1): 42.1%
activity at 10.8 µM (cardiac microtissues [1]; gene UCHL1, Run 2): 21.3%
2^-ΔΔCt of Individual reps, Treated 1 (cardiac microtissues [1]; gene ATAD3C, Run 1): 0.8222
2^-ΔΔCt of Individual reps, Treated 2 (cardiac microtissues [1]; gene ATAD3C, Run 1): 0.6233
2^-ΔΔCt of Individual reps, Treated 3 (cardiac microtissues [1]; gene ATAD3C, Run 1): 0.828
Average 2^-ΔΔCt, Treated (cardiac microtissues [1]; gene ATAD3C, Run 1): 0.7578
2^-ΔΔCt of Individual reps, Treated 1 (cardiac microtissues [1]; gene CDH13, Run 1): 0.4709
2^-ΔΔCt of Individual reps, Treated 2 (cardiac microtissues [1]; gene CDH13, Run 1): 0.4361
2^-ΔΔCt of Individual reps, Treated 3 (cardiac microtissues [1]; gene CDH13, Run 1): 0.5098
Average 2^-ΔΔCt, Treated (cardiac microtissues [1]; gene CDH13, Run 1): 0.4723
2^-ΔΔCt of Individual reps, Treated 1 (cardiac microtissues [1]; gene CDH13, Run 2): 0.2109
2^-ΔΔCt of Individual reps, Treated 2 (cardiac microtissues [1]; gene CDH13, Run 2): 0.2308
2^-ΔΔCt of Individual reps, Treated 3 (cardiac microtissues [1]; gene CDH13, Run 2): 0.1575
Average 2^-ΔΔCt, Treated (cardiac microtissues [1]; gene CDH13, Run 2): 0.1997
2^-ΔΔCt of Individual reps, Treated 1 (cardiac microtissues [1]; gene IL6, Run 1): 0.1388
2^-ΔΔCt of Individual reps, Treated 2 (cardiac microtissues [1]; gene IL6, Run 1): 0.1078
2^-ΔΔCt of Individual reps, Treated 3 (cardiac microtissues [1]; gene IL6, Run 1): 0.05876
Average 2^-ΔΔCt, Treated (cardiac microtissues [1]; gene IL6, Run 1): 0.1018
2^-ΔΔCt of Individual reps, Treated 1 (cardiac microtissues [1]; gene PTX3, Run 1): 0.2236
2^-ΔΔCt of Individual reps, Treated 2 (cardiac microtissues [1]; gene PTX3, Run 1): 0.2024
2^-ΔΔCt of Individual reps, Treated 3 (cardiac microtissues [1]; gene PTX3, Run 1): 0.143
Average 2^-ΔΔCt, Treated (cardiac microtissues [1]; gene PTX3, Run 1): 0.1897
2^-ΔΔCt of Individual reps, Treated 1 (cardiac microtissues [1]; gene PTX3, Run 2): 0.06731
2^-ΔΔCt of Individual reps, Treated 2 (cardiac microtissues [1]; gene PTX3, Run 2): 0.04708
2^-ΔΔCt of Individual reps, Treated 3 (cardiac microtissues [1]; gene PTX3, Run 2): 0.03383
Average 2^-ΔΔCt, Treated (cardiac microtissues [1]; gene PTX3, Run 2): 0.04941
2^-ΔΔCt of Individual reps, Treated 1 (cardiac microtissues [1]; gene SLC7A5, Run 1): 0.5311
2^-ΔΔCt of Individual reps, Treated 2 (cardiac microtissues [1]; gene SLC7A5, Run 1): 0.5414
2^-ΔΔCt of Individual reps, Treated 3 (cardiac microtissues [1]; gene SLC7A5, Run 1): 0.5079
Average 2^-ΔΔCt, Treated (cardiac microtissues [1]; gene SLC7A5, Run 1): 0.5268
2^-ΔΔCt of Individual reps, Treated 1 (cardiac microtissues [1]; gene SLC7A5, Run 2): 0.3467
2^-ΔΔCt of Individual reps, Treated 2 (cardiac microtissues [1]; gene SLC7A5, Run 2): 0.2554
2^-ΔΔCt of Individual reps, Treated 3 (cardiac microtissues [1]; gene SLC7A5, Run 2): 0.2489
Average 2^-ΔΔCt, Treated (cardiac microtissues [1]; gene SLC7A5, Run 2): 0.2837
2^-ΔΔCt of Individual reps, Treated 1 (cardiac microtissues [1]; gene UCHL1, Run 1): 0.4041
2^-ΔΔCt of Individual reps, Treated 2 (cardiac microtissues [1]; gene UCHL1, Run 1): 0.4271
2^-ΔΔCt of Individual reps, Treated 3 (cardiac microtissues [1]; gene UCHL1, Run 1): 0.4398
Average 2^-ΔΔCt, Treated (cardiac microtissues [1]; gene UCHL1, Run 1): 0.4237
2^-ΔΔCt of Individual reps, Treated 1 (cardiac microtissues [1]; gene UCHL1, Run 2): 0.202
2^-ΔΔCt of Individual reps, Treated 2 (cardiac microtissues [1]; gene UCHL1, Run 2): 0.2889
2^-ΔΔCt of Individual reps, Treated 3 (cardiac microtissues [1]; gene UCHL1, Run 2): 0.1891
Average 2^-ΔΔCt, Treated (cardiac microtissues [1]; gene UCHL1, Run 2): 0.2267
activation Z-score: Actin Cytoskeleton Signaling (cardiac microtissues [2]): -2.887
activation Z-score: Actin Nucleation by ARP-WASP Complex (cardiac microtissues [2]): -2.449
activation Z-score: Acute Phase Response Signaling (cardiac microtissues [2]): -2.828
activation Z-score: Adrenomedullin signaling pathway (cardiac microtissues [2]): -0.535
activation Z-score: Apelin Cardiac Fibroblast Signaling Pathway (cardiac microtissues [2]): 2.449
activation Z-score: Apelin Liver Signaling Pathway (cardiac microtissues [2]): -2.449
activation Z-score: Aryl Hydrocarbon Receptor Signaling (cardiac microtissues [2]): -2.333
activation Z-score: Breast Cancer Regulation by Stathmin1 (cardiac microtissues [2]): -3.363
activation Z-score: CLEAR Signaling Pathway (cardiac microtissues [2]): 2.5
activation Z-score: Cardiac Hypertrophy Signaling (Enhanced) (cardiac microtissues [2]): -3.889
activation Z-score: Colorectal Cancer Metastasis Signaling (cardiac microtissues [2]): -3.5
activation Z-score: Cyclins and Cell Cycle Regulation (cardiac microtissues [2]): 1
activation Z-score: ERK5 Signaling (cardiac microtissues [2]): -2.646
activation Z-score: Endothelin-1 Signaling (cardiac microtissues [2]): -1.604
activation Z-score: G-Protein Coupled Receptor Signaling (cardiac microtissues [2]): -1.571
activation Z-score: GP6 Signaling Pathway (cardiac microtissues [2]): -3.742
activation Z-score: Glioblastoma Multiforme Signaling (cardiac microtissues [2]): -2.111
activation Z-score: HGF Signaling (cardiac microtissues [2]): -1.89
activation Z-score: HIF1Î± Signaling (cardiac microtissues [2]): -2.673
activation Z-score: HMGB1 Signaling (cardiac microtissues [2]): -3.3
activation Z-score: Hepatic Fibrosis Signaling Pathway (cardiac microtissues [2]): -6.008
activation Z-score: IL-6 Signaling (cardiac microtissues [2]): -3.3
activation Z-score: IL-8 Signaling (cardiac microtissues [2]): -2.84
activation Z-score: IL-13 Signaling Pathway (cardiac microtissues [2]): -1.897
activation Z-score: IL-15 Production (cardiac microtissues [2]): -1.897
activation Z-score: ILK Signaling (cardiac microtissues [2]): -3.207
activation Z-score: Immunogenic Cell Death Signaling Pathway (cardiac microtissues [2]): -2.828
activation Z-score: Integrin Signaling (cardiac microtissues [2]): -3.357
activation Z-score: Intrinsic Prothrombin Activation Pathway (cardiac microtissues [2]): -2.236
activation Z-score: LXR/RXR Activation (cardiac microtissues [2]): 3.3
activation Z-score: Leukocyte Extravasation Signaling (cardiac microtissues [2]): -1.698
activation Z-score: MIF Regulation of Innate Immunity (cardiac microtissues [2]): -1.633
activation Z-score: MYC Mediated Apoptosis Signaling (cardiac microtissues [2]): -2.449
activation Z-score: Macrophage Alternative Activation Signaling Pathway (cardiac microtissues [2]): -0.728
activation Z-score: Oncostatin M Signaling (cardiac microtissues [2]): -1.342
activation Z-score: Osteoarthritis Pathway (cardiac microtissues [2]): -2.985
activation Z-score: Oxytocin Signaling Pathway (cardiac microtissues [2]): -2.4
activation Z-score: PAK Signaling (cardiac microtissues [2]): -2.449
activation Z-score: PPAR Signaling (cardiac microtissues [2]): 3.742
activation Z-score: Production of Nitric Oxide and Reactive Oxygen Species in Macrophages (cardiac microtissues [2]): -2.646
activation Z-score: Prostanoid Biosynthesis (cardiac microtissues [2]): -1
activation Z-score: Pulmonary Fibrosis Idiopathic Signaling Pathway (cardiac microtissues [2]): -5.947
activation Z-score: Pulmonary Healing Signaling Pathway (cardiac microtissues [2]): -2.668
activation Z-score: RAC Signaling (cardiac microtissues [2]): -2.449
activation Z-score: RHOGDI Signaling (cardiac microtissues [2]): 2.309
activation Z-score: Regulation Of The Epithelial Mesenchymal Transition By Growth Factors Pathway (cardiac microtissues [2]): -3.962
activation Z-score: Regulation of Cellular Mechanics by Calpain Protease (cardiac microtissues [2]): -2
activation Z-score: Regulation of eIF4 and p70S6K Signaling (cardiac microtissues [2]): -2
activation Z-score: Renin-Angiotensin Signaling (cardiac microtissues [2]): -2
activation Z-score: Ribonucleotide Reductase Signaling Pathway (cardiac microtissues [2]): -2.496
activation Z-score: Role of IL-17F in Allergic Inflammatory Airway Diseases (cardiac microtissues [2]): -2
activation Z-score: Role of JAK family kinases in IL-6-type Cytokine Signaling (cardiac microtissues [2]): -2.673
activation Z-score: Role of NFAT in Cardiac Hypertrophy (cardiac microtissues [2]): -2.496
activation Z-score: STAT3 Pathway (cardiac microtissues [2]): -2.496
activation Z-score: Senescence Pathway (cardiac microtissues [2]): -2
activation Z-score: Signaling by Rho Family GTPases (cardiac microtissues [2]): -3.357
activation Z-score: Superpathway of Cholesterol Biosynthesis (cardiac microtissues [2]): 2
activation Z-score: TREM1 Signaling (cardiac microtissues [2]): -2.714
activation Z-score: Type II Diabetes Mellitus Signaling (cardiac microtissues [2]): -2
activation Z-score: White Adipose Tissue Browning Pathway (cardiac microtissues [2]): -2.111
activation Z-score: Wound Healing Signaling Pathway (cardiac microtissues [2]): -5
number of significant differentially expressed genes, 6hr high (cardiac microtissues [3]): 108
number of significant differentially expressed genes, 6hr low (cardiac microtissues [3]): 48
number of significant differentially expressed genes, 48hr high (cardiac microtissues [3]): 820
number of significant differentially expressed genes, 48hr low (cardiac microtissues [3]): 637
number of significant differentially expressed genes, 72hr high (cardiac microtissues [3]): 814
number of significant differentially expressed genes, 72hr low (cardiac microtissues [3]): 616
Structural cardiotoxin? [4]: Y
Functional cardiotoxin? [4]: Y

COc1cccc2c1C(=O)c1c(O)c3c(c(O)c1C2=O)C[C@@](O)(C(=O)CO)C[C@@H]3O[C@H]1C[C@H](N)[C@H](O)[C@H](C)O1 [Doxorubicin HCl]
number of significant differentially expressed genes, 6hr high (cardiac microtissues [3]): 17
number of significant differentially expressed genes, 6hr low (cardiac microtissues [3]): 26
number of significant differentially expressed genes, 48hr high (cardiac microtissues [3]): 5
number of significant differentially expressed genes, 48hr low (cardiac microtissues [3]): 5
number of significant differentially expressed genes, 72hr high (cardiac microtissues [3]): 4
number of significant differentially expressed genes, 72hr low (cardiac microtissues [3]): 5
impact on gene expression profiles (cardiac microtissues [3]; cardiac microtissues, all treatments): low impact on gene expression profiles
Structural cardiotoxin? [4]: Y
Functional cardiotoxin? [4]: Y
Transcriptomic high concentration (µM) = IC30 of ATP depletion (cardiac microtissues [5]): 0.36 µM

CS(=O)(=O)CCNCc1ccc(-c2ccc3ncnc(Nc4ccc(OCc5cccc(F)c5)c(Cl)c4)c3c2)o1 [Lapatinib]
number of significant differentially expressed genes, 6hr high (cardiac microtissues [3]): 27
number of significant differentially expressed genes, 6hr low (cardiac microtissues [3]): 17
number of significant differentially expressed genes, 48hr high (cardiac microtissues [3]): 13
number of significant differentially expressed genes, 48hr low (cardiac microtissues [3]): 40
number of significant differentially expressed genes, 72hr high (cardiac microtissues [3]): 29
number of significant differentially expressed genes, 72hr low (cardiac microtissues [3]): 18
Structural cardiotoxin? [4]: Y
Functional cardiotoxin? [4]: Y
Transcriptomic high concentration (µM) = IC30 of ATP depletion (cardiac microtissues [5]): 5.53 µM
